From patent US8808702B2, “Sulfide, sulfoxide and sulfone chalcone analogues, derivatives thereof and therapeutic uses thereof” (Temple University-of the Commonwealth System of Higher …, priority 2006, dated 2014)

Legend:
[1] = tested on: K562 (chronic myelogenous leukaemia); assay: Effect of compounds on tumor cell lines (assay of Latham et al.), K562; type: cell-based; conditions: K562 cells, 96 hours after treatment, 1 μM to 100 μM; read-out: K 562 potency (IC50)
Experimental: (§1) The effect of the compounds of the invention on tumor cells was determined by the assay described by Latham et al., Oncogene 12:827-837 (1996). Tumor cells K562 (chronic myelogenous leukaemia) or DU145 (prostate cancer) were plated in 12-well dishes at a cell density of 2.5×10^4 cells well. The plated cells were treated 24 hours later with a compound of the invention dissolved in DMSO at multiple concentrations ranging from 1 μM to 100 μM. The plates were examined 96 hours later under an inverted microscope, Olympus CK-2 using an 10× objective, and compound activity was noted by physical observation. When necessary, the total number of viable cells was determined by trypsinizing the wells and counting the number of viable cells, as determined by trypan blue exclusion, using a hemacytometer.
(§2) The representative compounds listed in Tables 1-5 are shown by way of illustration, and are not intended to limit the scope of the invention. The compounds are prepared and tested by methods based on those described above, except that the compound of Table 5 was dissolved in DMSO at multiple concentrations ranging from 0.1 μM to 100 μM

DU145 (prostate cancer) = assay: Effect of compounds on tumor cell lines (assay of Latham et al.), DU145; type: cell-based; conditions: DU145 cells, 96 hours after treatment, 1 μM to 100 μM; read-out: DU 145 potency (IC50)
Experimental: as §1, §2

| SMILES | IC50 [1] [µM] | IC50 (DU145 (prostate cancer)) [µM] |
| --- | --- | --- |
| O=C(C(=Cc1c(O)cc(O)cc1O)SCc1ccc(Cl)c(Cl)c1)c1ccc(Cl)cc1 [Example 136] | 25 to 50 | 25 to 50 |
| COc1cc(OC)c(C=C(SCc2ccc(Cl)c(Cl)c2)C(=O)c2ccc(Cl)cc2)c(OC)c1 [Example 137] | 10 to 25 | 10 to 25 |
| COc1ccc(OC)c(C=C(SCc2ccc(Cl)c(Cl)c2)C(=O)c2ccc(Cl)cc2)c1 [Example 138] | 10 to 25 | 10 to 25 |
| O=C(C(=Cc1ccccc1OCc1ccccc1)SCc1ccc(Cl)c(Cl)c1)c1ccc(Cl)cc1 [Example 139] | 10 to 25 | 10 to 25 |
| CN(C)c1ccc(C=C(SCc2ccc(Cl)c(Cl)c2)C(=O)c2ccc(Cl)cc2)cc1 [Example 142] | 50 to 100 | 50 to 100 |
| CCOc1ccc(C=C(SCc2ccc(Cl)c(Cl)c2)C(=O)c2ccc(Cl)cc2)cc1OC [Example 143] | 1 to 10 | 25 to 50 |
| O=C(C(=Cc1ccc(O)cc1)SCc1ccc(Cl)c(Cl)c1)c1ccc(Cl)cc1 [Example 144] | 1 to 10 | 1 to 10 |
| O=C(C(=Cc1ccc(O)cc1O)SCc1cccc(Cl)c1)c1ccc(Br)cc1 [Example 145] | 25 to 50 | 50 to 100 |
| O=C(C(=Cc1ccc(OCc2ccccc2)cc1)SCc1cccc(Cl)c1)c1ccc(Br)cc1 [Example 146] | 1 to 10 | 1 to 10 |
| O=C(C(=Cc1cc(Br)c(O)c(Br)c1)SCc1ccc(Br)cc1)c1ccc(Br)cc1 [Example 147] | 10 to 25 | 1 to 10 |
| O=C(C(=Cc1cc(Cl)c(O)c(Cl)c1)SCc1ccc(Br)cc1)c1ccc(Br)cc1 [Example 148] | 10 to 25 | 10 to 25 |
| Cc1cc(C)cc(C=C(SCc2ccc(Br)cc2)C(=O)c2ccc(Cl)cc2)c1 [Example 149] | 10 to 25 | 10 to 25 |
| O=C(O)c1ccc(C(=O)C(=Cc2ccc(O)c(Br)c2)SCc2ccc(Br)cc2)cc1 [Example 150] | 25 to 50 | 25 to 50 |
| O=C(C(=Cc1ccc(O)c(C(=O)O)c1)SCc1ccc(Br)cc1)c1ccc(Br)cc1 [Example 151] | 25 to 50 | 10 to 25 |
| O=C(C(=Cc1ccc([N+](=O)[O-])c(O)c1)SCc1ccc(Br)cc1)c1c(F)c(F)c(F)c(F)c1F [Example 152] | 1 to 10 | 10 to 25 |
| O=C(C(=Cc1ccc([N+](=O)[O-])c(O)c1)SCc1ccc(Br)cc1)c1ccc([N+](=O)[O-])c(Cl)c1 [Example 154] | 1 to 10 | 1 to 10 |
| O=C(C(=Cc1ccc([N+](=O)[O-])c(O)c1)SCc1ccc(Br)cc1)c1ccc(Br)cc1 [Example 155] | 1 to 10 | 10 to 25 |
| O=C(O)c1ccc(C(=O)C(=Cc2ccc([N+](=O)[O-])c(O)c2)SCc2ccc(Br)cc2)cc1 [Example 156] | 1 to 10 | 10 to 25 |
| N#Cc1ccc(C(=O)C(=Cc2ccc([N+](=O)[O-])c(O)c2)SCc2ccc(Br)cc2)cc1 [Example 157] | 1 to 10 | 1 to 10 |
| O=C(C(=Cc1ccc([N+](=O)[O-])c(O)c1)SCc1ccc(Br)cc1)c1ccc([N+](=O)[O-])cc1 [Example 158] | 1 to 10 | 1 to 10 |

| SMILES | IC50 [1] [µM] | IC50 (DU145 (prostate cancer)) [µM] |
| --- | --- | --- |
| O=C(/C(=C\c1ccc([N+](=O)[O-])c(O)c1)SCc1ccc(Br)cc1)c1ccc(N2CCCC2)cc1 [Example 159] | > 100 | > 100 |
| O=C(/C(=C\c1ccc([N+](=O)[O-])c(O)c1)SCc1ccc(Br)cc1)c1ccc(C(F)(F)F)cc1 [Example 160] | 1 to 10 | 1 to 10 |
| O=C(/C(=C\c1ccc([N+](=O)[O-])c(O)c1)SCc1ccc(Br)cc1)c1cc(Cl)ccc1O [Example 161] | 10 to 25 | 10 to 25 |
| CCN(CC)CCNC(=O)c1c(C)[nH]c(/C=C(/SCc2ccc(Br)cc2)C(=O)c2ccc(Br)cc2)c1C [Example 162] | 1 to 10 | 1 to 10 |
| CCN(CC)CCNC(=O)c1c(C)[nH]c(/C=C(/SCc2ccc(Br)cc2)C(=O)c2ccc(C(=O)O)cc2)c1C [Example 163] | 50 to 100 | 50 to 100 |
| CN(C)c1ccc(/C=C(/SCc2ccc(Br)cc2)C(=O)c2ccc(C(=O)O)cc2)cc1 [Example 164] | 25 to 50 | 50 to 100 |
| O=C(O)c1ccc(C(=O)/C(=C\c2ccc(Br)c([N+](=O)[O-])c2)SCc2ccc(Br)cc2)cc1 [Example 165] | 1 to 10 | 1 to 10 |
| O=C(O)c1ccc(C(=O)/C(=C\c2ccc(Br)cc2)SCc2ccc(Br)cc2)cc1 [Example 166] | 1 to 10 | 1 to 10 |
| Cc1[nH]c(/C=C(/SCc2ccc(Br)cc2)C(=O)c2ccc(Br)cc2)c(C)c1C(=O)O [Example 167] | 50 to 100 | 50 to 100 |
| O=C(O)c1ccc(C(=O)/C(=C\c2ccc(Cl)c([N+](=O)[O-])c2)SCc2ccc(Br)cc2)cc1 [Example 168] | ≤ 1 | 1 to 10 |
| O=C(/C(=C\c1ccc(Cl)cc1)SCc1ccc(Br)cc1)c1ccccc1Cl [Example 169] | 1 to 10 | 25 to 50 |
| CCOC(=O)c1c(C)[nH]c(/C=C(/SCc2ccc(Br)cc2)C(=O)c2ccc(Br)cc2)c1C [Example 170] | 25 to 50 | 50 to 100 |
| O=C(O)c1ccc(C(=O)/C(=C\c2ccc(F)c([N+](=O)[O-])c2)SCc2ccc(Br)cc2)cc1 [Example 172] | 1 to 10 | 1 to 10 |
| O=C(/C(=C\c1cc(I)c(O)c(I)c1)SCc1ccc(Br)cc1)c1ccc(Br)cc1 [Example 173] | 1 to 10 | 1 to 10 |
| COc1cc(/C=C(/SCc2ccc(Br)cc2)C(=O)c2ccc(Br)cc2)cc([N+](=O)[O-])c1O [Example 174] | 25 to 50 | 25 to 50 |
| O=C(/C(=C\c1ccc(O)c([N+](=O)[O-])c1)SCc1ccc(Br)cc1)c1c(F)c(F)c(F)c(F)c1F [Example 175] | 10 to 25 | 10 to 25 |
| O=C(/C(=C\c1ccc(O)c([N+](=O)[O-])c1)SCc1ccc(Br)cc1)c1ccc(Cl)cc1Cl [Example 176] | 1 to 10 | 10 to 25 |
| O=C(/C(=C\c1ccc(O)c([N+](=O)[O-])c1)SCc1ccc(Br)cc1)c1ccc(O)cc1O [Example 177] | 50 to 100 | > 100 |
| COc1cc(C(=O)/C(=C\c2ccc(O)c([N+](=O)[O-])c2)SCc2ccc(Br)cc2)cc(OC)c1OC [Example 178] | 1 to 10 | 1 to 10 |
| O=C(/C(=C\c1ccc(O)c([N+](=O)[O-])c1)SCc1ccc(Br)cc1)c1ccc([N+](=O)[O-])c(Cl)c1 [Example 179] | 1 to 10 | 1 to 10 |

| SMILES | IC50 [1] [µM] | IC50 (DU145 (prostate cancer)) [µM] |
| --- | --- | --- |
| O=C(O)c1ccc(C(=O)/C(=C\c2ccc(O)c([N+](=O)[O-])c2)SCc2ccc(Br)cc2)cc1 [Example 181] | 50 to 100 | 50 to 100 |
| N#Cc1ccc(C(=O)/C(=C\c2ccc(O)c([N+](=O)[O-])c2)SCc2ccc(Br)cc2)cc1 [Example 182] | 10 to 25 | 10 to 25 |
| COc1ccc(C(=O)/C(=C\c2ccc(O)c([N+](=O)[O-])c2)SCc2ccc(Br)cc2)cc1 [Example 183] | 10 to 25 | 10 to 25 |
| O=C(/C(=C\c1ccc(O)c([N+](=O)[O-])c1)SCc1ccc(Br)cc1)c1ccc([N+](=O)[O-])cc1 [Example 184] | 10 to 25 | 10 to 25 |
| O=C(/C(=C\c1ccc(O)c([N+](=O)[O-])c1)SCc1ccc(Br)cc1)c1ccc(N2CCCC2)cc1 [Example 185] | > 100 | > 100 |
| O=C(/C(=C\c1ccc(O)c([N+](=O)[O-])c1)SCc1ccc(Br)cc1)c1ccc(C(F)(F)F)cc1 [Example 186] | 1 to 10 | 10 to 25 |
| O=C(/C(=C\c1ccc(O)c([N+](=O)[O-])c1)SCc1ccc(Br)cc1)c1cc(Cl)ccc1O [Example 187] | 10 to 25 | 25 to 50 |
| CSc1ccc(/C=C(/SCc2ccc(Br)cc2)C(=O)c2ccc(C(=O)O)cc2)cc1 [Example 188] | 25 to 50 | 25 to 50 |
| O=C(/C(=C\c1cccc(Cl)c1Cl)SCc1ccc(Cl)cc1)c1ccc(Br)cc1 [Example 190] | 10 to 25 | 10 to 25 |
| O=C(C(=Cc1cccc(Cl)c1Cl)SCc1ccc(Cl)cc1)c1ccc(Cl)cc1 [Example 191] | 1 to 10 | 10 to 25 |
| O=C(C(=Cc1c(O)cc(O)cc1O)SCc1ccc(Cl)cc1)c1ccc(Cl)cc1 [Example 192] | > 100 | > 100 |
| COc1cc(OC)c(C=C(SCc2ccc(Cl)cc2)C(=O)c2ccc(Br)cc2)c(OC)c1 [Example 193] | 10 to 25 | 1 to 10 |
| COc1cc(OC)c(C=C(SCc2ccc(Cl)cc2)C(=O)c2ccc([N+](=O)[O-])cc2)c(OC)c1 [Example 194] | 50 to 100 | > 100 |
| O=C(C(=Cc1ccc(Cl)cc1Cl)SCc1ccc(Cl)cc1)c1ccc(Cl)cc1 [Example 195] | 25 to 50 | 25 to 50 |
| O=C(C(=Cc1ccc(O)cc1O)SCc1ccc(Cl)cc1)c1ccc(Cl)cc1 [Example 196] | 50 to 100 | 50 to 100 |
| Cc1ccc(C)c(C=C(SCc2ccc(Cl)cc2)C(=O)c2ccc(Cl)cc2)c1 [Example 197] | 10 to 25 | 10 to 25 |
| COc1ccccc1C=C(SCc1ccc(Cl)cc1)C(=O)c1ccc(Br)cc1 [Example 198] | 10 to 25 | 1 to 10 |
| COc1ccccc1C=C(SCc1ccc(Cl)cc1)C(=O)c1ccc(Cl)cc1 [Example 199] | 1 to 10 | 1 to 10 |
